# Like-named read-outs stand apart in the source and are kept apart here.
# Key:
# [1] = biological target: T1, Human UII receptors (Homo sapiens, UniProt Q9UKP6); assay: Human radioligand binding assay, (125I)-U-II on HSMM
# T1 construct: host or cells: Human Skeletal Muscle Myoblasts (HSMM), intact adherent cells
# T1 sequence (Q9UKP6 1-389): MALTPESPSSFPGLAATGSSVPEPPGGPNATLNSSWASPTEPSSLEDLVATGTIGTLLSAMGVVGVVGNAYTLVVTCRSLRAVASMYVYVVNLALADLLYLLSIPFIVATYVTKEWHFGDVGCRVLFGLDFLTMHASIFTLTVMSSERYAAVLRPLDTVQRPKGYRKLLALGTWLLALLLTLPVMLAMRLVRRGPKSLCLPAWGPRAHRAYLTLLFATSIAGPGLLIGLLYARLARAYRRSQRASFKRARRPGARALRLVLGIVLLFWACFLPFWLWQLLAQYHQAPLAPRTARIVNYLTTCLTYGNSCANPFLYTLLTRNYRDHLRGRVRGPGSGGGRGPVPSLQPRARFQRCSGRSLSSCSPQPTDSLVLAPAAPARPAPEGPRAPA
# Method: Human Skeletal Muscle Myoblasts (HSMM) were obtained from Cambrex, and were cultured according to manufacturer's instruction. Cell viability was examined by trypan blue exclusion. Cells at less than 4 passages were used in all studies. […] The binding medium used was Dulbecco's modified Eagle's medium (DMEM) containing 2 mg/ml BSA and 25 mM HEPES (pH 7.4). […] The cells were washed 4× with the binding medium and solubilized in 1% SDS and 0.5 N NaOH. Radioactivity was quantified by gamma counting.
# [2] = biological target: T2, rat GPR14 (U-II receptor) (Rattus norvegicus, UniProt P49684); assay: Calcium flux assay (FLIPR); format: cell-based; conditions: Inhibition of acetyl-cyclic[Cys-Phe-Trp-Lys-(2-Nal)-Cys]-NH2 (1 nM) induced Ca2+ mobilization (FLIPR) in CHO cells transfected with rat UII receptor; 5 min incubation
# T2 construct: expressed in transfected cells
# T2 sequence (P49684 1-386): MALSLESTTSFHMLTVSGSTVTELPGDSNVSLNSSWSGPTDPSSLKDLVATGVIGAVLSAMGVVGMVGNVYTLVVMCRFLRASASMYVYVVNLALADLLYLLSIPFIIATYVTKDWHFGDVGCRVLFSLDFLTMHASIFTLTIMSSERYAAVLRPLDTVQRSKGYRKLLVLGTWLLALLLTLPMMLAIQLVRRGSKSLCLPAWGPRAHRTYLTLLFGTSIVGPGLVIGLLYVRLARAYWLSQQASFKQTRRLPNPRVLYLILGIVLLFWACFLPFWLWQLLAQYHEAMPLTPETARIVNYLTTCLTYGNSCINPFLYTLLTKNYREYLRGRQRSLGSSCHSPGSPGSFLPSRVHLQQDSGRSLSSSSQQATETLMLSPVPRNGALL
# In short: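 Stable CHO cell line expressing cloned rat U-II receptor, seeded 24 h before assay, loaded with FLIPR calcium dye in HBSS/20 mM HEPES/0.1% BSA/2.5 mM probenecid, pH 7.4, for 1 hr at 37° C. Calcium mobilization read at room temperature (23° C.).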
# [3] = 0.150 nM (125I)-U-II, intact Human Skeletal Muscle Myoblasts, 3 hrs, 25° C., read-out: Ki
Structure (SMILES),"Ki [1, 3] [nM]",IC50 [2] [nM],Ki [1] [nM]
"O=C(NCCNC(=O)c1ccccc1C1CCN(CCN2C(=O)COc3ccccc32)CC1)Nc1cccc2ccccc12 [Cpd 55, N-[2-(3-naphthalen-1-yl-ureido)-ethyl]-2-{1-[2-(3-oxo-2,3-dihydro-benzo[1,4]oxazin-4-yl)-ethyl]-piperidin-4-yl}-benzamide]",840,2000,–
"O=C(NCCc1ccccc1)c1cc(Cl)ccc1C1CCN(CCN2C(=O)COc3ccccc32)CC1 [Cpd 57, 5-chloro-2-{1-[2-(3-oxo-2,3-dihydro-benzo[1,4]oxazin-4-yl)-ethyl]-piperidin-4-yl}-N-phenethyl-benzamide]",190,1300,–
"O=C(NCCCCCNS(=O)(=O)Cc1ccccc1)c1cc(Cl)ccc1C1CCN(CCN2C(=O)COc3ccccc32)CC1 [Cpd 78, 5-chloro-2-{1-[2-(3-oxo-2,3-dihydro-benzo[1,4]oxazin-4-yl)-ethyl]-piperidin-4-yl}-N-(5-phenylmethanesulfonylamino-pentyl)-benzamide]",40,100,–
"CC(C)(C)OC(=O)NCCCCNC(=O)c1cc(Cl)ccc1C1CCN(CCN2C(=O)COc3ccccc32)CC1 [Cpd 60, [4-(5-chloro-2-{1-[2-(3-oxo-2,3-dihydro-benzo[1,4]oxazin-4-yl)-ethyl]-piperidin-4-yl}-benzoylamino)-butyl]-carbamic acid tert-butyl ester]",150,500,–
"CC(C)(C)CC(=O)NCCCCCNC(=O)c1cc(Cl)ccc1C1CCN(CCN2C(=O)COc3ccccc32)CC1 [Cpd 76, 5-chloro-N-[5-(3,3-dimethyl-butyrylamino)-pentyl]-2-{1-[2-(3-oxo-2,3-dihydro-benzo[1,4]oxazin-4-yl)-ethyl]-piperidin-4-yl}-benzamide]",–,150,43
"CC(C)(C)OC(=O)NCCCCCNC(=O)c1cc(Cl)ccc1C1=CC2CCC(C1)N2CCN1C(=O)COc2ccccc21 (centres unmarked) [Cpd 95, [5-(5-chloro-2-{8-[2-(3-oxo-2,3-dihydro-benzo[1,4]oxazin-4-yl)-ethyl]-8-aza-bicyclo[3.2.1]oct-2-en-3-yl}-benzoylamino)-pentyl]-carbamic acid tert-butyl ester]",1300,640,–
"O=C(NCCc1ccccc1)c1ccccc1C1CCN(CCN2C(=O)COc3ccccc32)CC1 [Cpd 1, 2-{1-[2-(3-oxo-2,3-dihydro-benzo[1,4]oxazin-4-yl)-ethyl]-piperidin-4-yl}-N-phenethyl-benzamide]",2900,7500,–
O=C(NCCCc1ccccc1)c1ccccc1C1CCN(CCN2C(=O)COc3ccccc32)CC1 [Cpd 3],330,4200,–
"CC(C)(C)OC(=O)NCCCCNC(=O)c1ccccc1C1CCN(CCN2C(=O)COc3ccccc32)CC1 [Cpd 35, [4-(2-{1-[2-(3-oxo-2,3-dihydro-benzo[1,4]oxazin-4-yl)-ethyl]-piperidin-4-yl}-benzoylamino)-butyl]-carbamic acid tert-butyl ester]",590,3000,–
"O=C(NCCCCCNC(=O)c1cc(Cl)ccc1C1CCN(CCN2C(=O)COc3ccccc32)CC1)NCCc1ccccc1 [Cpd 82, 5-chloro-2-{1-[2-(3-oxo-2,3-dihydro-benzo[1,4]oxazin-4-yl)-ethyl]-piperidin-4-yl}-N-[5-(3-phenethyl-ureido)-pentyl]-benzamide]",120,170,–
"CC(C)(C)OC(=O)NCCOCCNC(=O)c1cc(Cl)ccc1C1CCN(CCN2C(=O)COc3ccccc32)CC1 [Cpd 79, {2-[2-(5-chloro-2-{1-[2-(3-oxo-2,3-dihydro-benzo[1,4]oxazin-4-yl)-ethyl]-piperidin-4-yl}-benzoylamino)-ethoxy]-ethyl}-carbamic acid tert-butyl ester]",–,37,53
"CC(C)(C)OC(=O)N1CCC(CNC(=O)c2ccccc2C2CCN(CCN3C(=O)COc4ccccc43)CC2)CC1 [Cpd 50, 4-[(2-{1-[2-(3-oxo-2,3-dihydro-benzo[1,4]oxazin-4-yl)-ethyl]-piperidin-4-yl}-benzoylamino)-methyl]-piperidine-1-carboxylic acid tert-butyl ester]",430,2500,–

# The next lines start with results.
"Ki [1, 3] [nM]",IC50 [2] [nM],Structure (SMILES),Ki [1] [nM]
30,210,"O=C(NCC1CCN(C(=O)NCc2ccccc2)CC1)c1cc(Cl)ccc1C1CCN(CCN2C(=O)COc3ccccc32)CC1 [Cpd 67, 4-[(5-chloro-2-{1-[2-(3-oxo-2,3-dihydro-benzo[1,4]oxazin-4-yl)-ethyl]-piperidin-4-yl}-benzoylamino)-methyl]-piperidine-1-carboxylic acid benzylamide]",–
100,45,"CC(C)(C)OC(=O)NCCCCCCNC(=O)c1cc(Cl)ccc1C1CCN(CCN2C(=O)COc3ccccc32)CC1 [Cpd 74, [6-(5-chloro-2-{1-[2-(3-oxo-2,3-dihydro-benzo[1,4]oxazin-4-yl)-ethyl]-piperidin-4-yl}-benzoylamino)-hexyl]-carbamic acid tert-butyl ester]",–
210,2000,"CC(CN1C(=O)COc2ccccc21)N1CCC(c2ccc(Cl)cc2C(=O)NCC2CCN(S(=O)(=O)Cc3ccccc3)CC2)CC1 (centres unmarked) [Cpd 84, 5-chloro-2-{1-[1-methyl-2-(3-oxo-2,3-dihydro-benzo[1,4]oxazin-4-yl)-ethyl]-piperidin-4-yl}-N-(1-phenylmethanesulfonyl-piperidin-4-ylmethyl)-benzamide]",–
62,150,"O=C(NCCCCNC(=O)c1cc(Cl)ccc1C1CCN(CCN2C(=O)COc3ccccc32)CC1)OCc1ccccc1 [Cpd 69, [4-(5-chloro-2-{1-[2-(3-oxo-2,3-dihydro-benzo[1,4]oxazin-4-yl)-ethyl]-piperidin-4-yl}-benzoylamino)-butyl]-carbamic acid benzyl ester]",–
140,600,"CC(C)(C)OC(=O)N1CCC(CNC(=O)c2cc(Cl)ccc2C2CCN(CCN3C(=O)COc4ccccc43)CC2)CC1 [Cpd 58, 4-[(5-chloro-2-{1-[2-(3-oxo-2,3-dihydro-benzo[1,4]oxazin-4-yl)-ethyl]-piperidin-4-yl}-benzoylamino)-methyl]-piperidine-1-carboxylic acid tert-butyl ester]",–
220,360,"CC(C)(C)OC(=O)NCCCCCNC(=O)c1cc(Cl)ccc1C1CCN(CCN2C(=O)CCc3ccccc32)CC1 [Cpd 83, [5-(5-chloro-2-{1-[2-(2-oxo-3,4-dihydro-2H-quinolin-1-yl)-ethyl]-piperidin-4-yl}-benzoylamino)-pentyl]-carbamic acid tert-butyl ester]",–
32,330,"CC(C)(C)CC(=O)N1CCC(CNC(=O)c2cc(Cl)ccc2C2CCN(CCN3C(=O)COc4ccccc43)CC2)CC1 [Cpd 65, 5-chloro-N-[1-(3,3-dimethyl-butyryl)-piperidin-4-ylmethyl]-2-{1-[2-(3-oxo-2,3-dihydro-benzo[1,4]oxazin-4-yl)-ethyl]-piperidin-4-yl}-benzamide]",–
37,27,"O=C(NCCCCCNC(=O)c1cc(Cl)ccc1C1CCN(CCN2C(=O)COc3ccccc32)CC1)NCc1ccccc1 [Cpd 77, N-[5-(3-benzyl-ureido)-pentyl]-5-chloro-2-{1-[2-(3-oxo-2,3-dihydro-benzo[1,4]oxazin-4-yl)-ethyl]-piperidin-4-yl}-benzamide]",–
47,100,"CC(C)(C)OC(=O)N1CCC(CCNC(=O)c2cc(Cl)ccc2C2CCN(CCN3C(=O)COc4ccccc43)CC2)CC1 [Cpd 68, 4-[2-(5-chloro-2-{1-[2-(3-oxo-2,3-dihydro-benzo[1,4]oxazin-4-yl)-ethyl]-piperidin-4-yl}-benzoylamino)-ethyl]-piperidine-1-carboxylic acid tert-butyl ester]",–
30,53,"O=C(NCC1CCN(S(=O)(=O)Cc2ccccc2)CC1)c1cc(Cl)ccc1C1CCN(CCN2C(=O)COc3ccccc32)CC1 [Cpd 72, 5-chloro-2-{1-[2-(3-oxo-2,3-dihydro-benzo[1,4]oxazin-4-yl)-ethyl]-piperidin-4-yl}-N-(1-phenylmethanesulfonyl-piperidin-4-ylmethyl)-benzamide]",–
